Results from ChEMBL document CHEMBL5614382, “Discovery of a new 1-(phenylsulfonyl)-1H-indole derivative targeting the EphA2 receptor with antiproliferative activity on U251 glioblastoma cell line” (Eur J Med Chem, 2024).

The compounds below were run against Ephrin type-A receptor 2 (Mus musculus, UniProt Q03145) (assay: Displacement of biotinylated Fc-tagged ephrin-A1 from C/N-terminal 6-His tagged mouse recombinant EphA2 (Ala22 to Ala535 residues) preincubated for 1 hr followed by ephrin-A1-Fc addition and measured after 4 to 5 hrs by ELISA assay).
Chain of Ephrin type-A receptor 2 (Q03145 whole entry): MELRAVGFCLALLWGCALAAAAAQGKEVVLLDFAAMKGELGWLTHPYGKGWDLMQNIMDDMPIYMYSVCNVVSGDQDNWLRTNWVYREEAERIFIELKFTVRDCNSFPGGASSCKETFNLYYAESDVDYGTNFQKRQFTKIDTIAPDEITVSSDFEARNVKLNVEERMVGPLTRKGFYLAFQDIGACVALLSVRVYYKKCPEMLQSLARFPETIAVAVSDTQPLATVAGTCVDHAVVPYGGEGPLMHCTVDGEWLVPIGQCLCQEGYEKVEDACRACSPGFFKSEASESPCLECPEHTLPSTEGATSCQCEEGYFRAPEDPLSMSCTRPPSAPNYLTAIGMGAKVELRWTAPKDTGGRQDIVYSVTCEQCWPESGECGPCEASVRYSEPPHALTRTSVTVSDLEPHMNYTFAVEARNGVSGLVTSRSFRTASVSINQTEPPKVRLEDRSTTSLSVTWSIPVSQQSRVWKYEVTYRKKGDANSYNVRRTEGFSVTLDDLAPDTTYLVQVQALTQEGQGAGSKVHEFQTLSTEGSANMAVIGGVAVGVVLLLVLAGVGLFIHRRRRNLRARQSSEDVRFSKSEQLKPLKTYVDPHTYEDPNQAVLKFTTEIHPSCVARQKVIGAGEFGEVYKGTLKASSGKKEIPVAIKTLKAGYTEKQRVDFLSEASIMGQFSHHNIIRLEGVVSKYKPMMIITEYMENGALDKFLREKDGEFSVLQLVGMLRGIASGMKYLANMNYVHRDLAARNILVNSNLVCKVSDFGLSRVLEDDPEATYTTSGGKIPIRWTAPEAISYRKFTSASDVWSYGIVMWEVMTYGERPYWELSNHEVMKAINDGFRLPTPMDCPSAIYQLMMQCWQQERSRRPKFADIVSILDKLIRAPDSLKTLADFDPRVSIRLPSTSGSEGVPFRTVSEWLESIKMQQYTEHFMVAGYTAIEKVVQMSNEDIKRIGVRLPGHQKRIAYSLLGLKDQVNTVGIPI

Structure (SMILES) | IC50 [µM]
C[C@H](CCC(=O)N[C@H](CC(=O)O)Cc1cn(S(=O)(=O)c2ccoc2)c2ccccc12)[C@H]1CC[C@H]2[C@@H]3CC=C4C[C@@H](O)CC[C@]4(C)[C@H]3CC[C@]12C | 6.9
C[C@H](CCC(=O)N[C@H](CC(=O)O)Cc1cn(S(=O)(=O)c2ccc(C#N)cc2)c2ccccc12)[C@H]1CC[C@H]2[C@@H]3CC=C4C[C@@H](O)CC[C@]4(C)[C@H]3CC[C@]12C | 9.9
Cc1cccc(S(=O)(=O)n2cc(C[C@@H](CC(=O)O)NC(=O)CC[C@@H](C)[C@H]3CC[C@H]4[C@@H]5CC=C6C[C@@H](O)CC[C@]6(C)[C@H]5CC[C@]34C)c3ccccc32)c1 | 24
C[C@H](CCC(=O)N[C@H](CC(=O)O)Cc1cn(S(=O)(=O)c2cccnc2)c2ccccc12)[C@H]1CC[C@H]2[C@@H]3CC=C4C[C@@H](O)CC[C@]4(C)[C@H]3CC[C@]12C | 16
C[C@H](CCC(=O)N[C@H](CC(=O)O)Cc1cn(S(=O)(=O)c2cccc(C#N)c2)c2ccccc12)[C@H]1CC[C@H]2[C@@H]3CC=C4C[C@@H](O)CC[C@]4(C)[C@H]3CC[C@]12C | 24
C[C@H](CCC(=O)N[C@H](CC(=O)O)Cc1cn(S(=O)(=O)c2cccc(C(F)(F)F)c2)c2ccccc12)[C@H]1CC[C@H]2[C@@H]3CC=C4C[C@@H](O)CC[C@]4(C)[C@H]3CC[C@]12C | 12
C[C@H](CCC(=O)N[C@H](CC(=O)O)Cc1cn(S(=O)(=O)c2ccsc2)c2ccccc12)[C@H]1CC[C@H]2[C@@H]3CC=C4C[C@@H](O)CC[C@]4(C)[C@H]3CC[C@]12C | 5.5
C[C@H](CCC(=O)N[C@H](CC(=O)O)Cc1cn(S(=O)(=O)c2cccc(N)c2)c2ccccc12)[C@H]1CC[C@H]2[C@@H]3CC=C4C[C@@H](O)CC[C@]4(C)[C@H]3CC[C@]12C | 5.6
C[C@H](CCC(=O)N[C@H](CC(=O)O)Cc1cn(S(=O)(=O)c2cccc(F)c2)c2ccccc12)[C@H]1CC[C@H]2[C@@H]3CC=C4C[C@@H](O)CC[C@]4(C)[C@H]3CC[C@]12C | 29
C[C@H](CCC(=O)N[C@H](CC(=O)O)Cc1cn(S(=O)(=O)c2ccc(-c3ccccc3)cc2)c2ccccc12)[C@H]1CC[C@H]2[C@@H]3CC=C4C[C@@H](O)CC[C@]4(C)[C@H]3CC[C@]12C | 20
C[C@H](CCC(=O)N[C@H](CC(=O)O)Cc1cn(S(=O)(=O)c2cccc(-c3ccccc3)c2)c2ccccc12)[C@H]1CC[C@H]2[C@@H]3CC=C4C[C@@H](O)CC[C@]4(C)[C@H]3CC[C@]12C | 16

Further lines, results first:

IC50 [µM] | Structure (SMILES)
4.7 | C[C@H](CCC(=O)N[C@H](CC(=O)O)Cc1cn(S(=O)(=O)c2ccc(N)cc2)c2ccccc12)[C@H]1CC[C@H]2[C@@H]3CC=C4C[C@@H](O)CC[C@]4(C)[C@H]3CC[C@]12C
38 | C[C@H](CCC(=O)N[C@H](CC(=O)O)Cc1cn(S(=O)(=O)c2cccc([N+](=O)[O-])c2)c2ccccc12)[C@H]1CC[C@H]2[C@@H]3CC=C4C[C@@H](O)CC[C@]4(C)[C@H]3CC[C@]12C
3.6 | C[C@H](CCC(=O)N[C@H](CC(=O)O)Cc1cn(S(=O)(=O)c2ccc([N+](=O)[O-])cc2)c2ccccc12)[C@H]1CC[C@H]2[C@@H]3CC=C4C[C@@H](O)CC[C@]4(C)[C@H]3CC[C@]12C
8.2 | C[C@H](CCC(=O)N[C@H](CC(=O)O)Cc1cn(S(=O)(=O)c2ccc(F)cc2)c2ccccc12)[C@H]1CC[C@H]2[C@@H]3CC=C4C[C@@H](O)CC[C@]4(C)[C@H]3CC[C@]12C
8.3 | Cc1ccc(S(=O)(=O)n2cc(C[C@@H](CC(=O)O)NC(=O)CC[C@@H](C)[C@H]3CC[C@H]4[C@@H]5CC=C6C[C@@H](O)CC[C@]6(C)[C@H]5CC[C@]34C)c3ccccc32)cc1
